US20170202939A1, “PERSONALIZED CANCER VACCINES AND METHODS THEREFOR” (Washington University, priority 2014, published 2017)
No end group written: not given here.

Tested on: DM6 cells expressing TMC
Test: processing and presentation: T cells co-cultured with DM6 expressing tandem mini-gene constructs (51Cr release, IFN-γ ELISA)
Format: cell-based, human
Details: for neoantigen processing and presentation (cytotoxic activity, IFN-γ production): DM6 expressing AAS-/MUT-encoding mini-gene construct
Source text: As illustrated in FIG. 9 and FIG. 10, to determine whether vaccine-induced T cells could recognize naturally processed antigen, the melanoma tumor cell line DM6 was transduced with a multi-mini-gene construct encoding mutated (MUT) or wild-type (WT) sequences of peptides incorporated into a vaccine. FIG. 9 illustrates that each minigene consists of 21 aa encoding either the MUT or WT sequences. A scheme depicting minigene construct characteristics and a representative MUT 21-mer aa sequence encoded in construct is shown. Vaccine-induced T cells, specific for AKAP13 containing the Q285K mutation, were incubated with MUT or WT expressing DM6 cells, supernatants collected after 24 h of incubation, and IFN-γ produced by T cells was measured in supernatants by ELISA (FIG. 10).
Tandem mini-gene constructs (TMC) were used for evaluating processing and presentation of neoantigens. All constructs were 19-21-mers encoding AAS- or WT-sequences for peptides included in vaccine. No spacers are present between sequences. A ubiquitination signal and two mini-gene controls (encoding G280 and WNV SVG9 peptides) were included to monitor processing and presentation. The amino acid sequence of a 21-mer encoding TMEM48 F169L is shown with mutated amino acid residue underlined. TMC also encoded the West Nile Virus (WNV) SVG9 (McMurtrey, C. P., et al., P.N.A.S., 105, 2981-2986, 2008) and melanoma G280 (Cox, A. L., et al., Science, 264, 716-719, 1994) antigenic determinants as controls (Table 6).
TMC were cloned into pMX (GFP+), expressed as retrovirus and used to transfect the HLA-A*02:01+ melanoma lines DM6 (Darrow, T. L., et al., J. Immunol., 142, 3329-3335, 1989) or A375 (obtained from ATCC and mycoplasma free). TMC expressing cells were selected by sorting for GFP+ cells expressing cell surface HLA-A*02:01/SVG9 peptide complexes as detected by a T cell receptor mimic (TCRm) monoclonal antibody (Kim S., et al., J. Immunol., 184, 4423-4430, 2010). AAS- and WT-TMC reactivity with the HLA-A*02:01/SVG9 peptide complex specific TCRm monoclonal antibody validated expression of the mini-gene constructs. […] Results are shown for parental DM6 (shaded histogram) and DM6 cells expressing AAS—(dashed line) and WT (solid line) TMC constructs. A representative experiment of four performed is shown.
DM6 cells expressing TMC were labeled with 25μCi ^51Cr for 1 h, washed and tested as targets in a standard 4 h assay using neoantigen-specific T cells as effectors (Carreno B. M. et al. 2012 J Immunol 188, 5839). DM6 cells expressing AAS—(closed rectangles) or WT—(closed circles) TMC were co-cultured with neoantigen-specific T cells at a 1:1 ratio, supernatants harvest at 16 h and IFN-γ production evaluated by ELISA as described (Carreno, B. M., et al., J Immunol., 188, 58395849, […]; plots in FIG. 38). Open triangles represent lysis obtained with parental DM6 cells. Percent specific lysis of triplicates (mean+standard deviation) is shown for each E:T ratio; spontaneous lysis was <5%. A representative experiment of two independent evaluations is shown.
FIG. 39 illustrates that neoantigen-specific CD8 T cells were co-cultured with DM6 expressing AAS- or WT-encoding TMC for 20 h and IFN-γ production determined by ELISA. T cells cultured with parental DM6 cells are indicated as media. Mean values+/−SD of duplicates are shown. Results are representative of 2 experiments performed. […] None of the neoantigen-specific T cells recognized WT-encoding TMC (FIGS. 38 and 39). Based on these findings and the immune monitoring results (FIG. 31), the nine neoantigens identified in this study fall into three distinct antigenic determinant categories (Sercarz, E. E., et al., Annu. Rev. Imunol., 11, 729-766, 1993; Assarsson, E., et al., J. Immunol., 178, 7890-7901, 2007).

**Q.** With IILVAVPHV as the sequence, how does the “neoantigen processing and presentation (cytotoxic activity, IFN-γ production)” value (“neoantigen processing and presentation” below) read?
**A.** processed and presented

**Q.** CLNEYHLFL was tested. Which “Recognition of processed antigen” value did it give?
**A.** Yes

**Q.** What about the “neoantigen processing and presentation” value of the same sequence?
**A.** processed and presented

**Q.** MLGEQLFPL was tested. Which “Recognition of processed antigen” value did it give?
**A.** Yes

**Q.** And the “neoantigen processing and presentation” value?
**A.** processed and presented

**Q.** What does the source list for KLMNIQQKL?
**A.** Recognition of processed antigen: Yes; neoantigen processing and presentation (cytotoxic activity, IFN-γ production) (listed as AKAP13 (Q285K)): processed, presented and recognized by vaccine-induced T cells; neoantigen processing and presentation (cytotoxic activity, IFN-γ production) (listed as AKAP13 Q285K): processed and presented

**Q.** Which results are given for QLSCISTYV?
**A.** Recognition of processed antigen: No; neoantigen processing and presentation (cytotoxic activity, IFN-γ production): not processed and presented
